Patent US20260124293A1 (priority 2022, published 2026)

Test system: WT SARS-CoV-2 or OTS4-5-7-8 in VeroE6/TMPRSS2 cells
Assay type: cell-based

CC(C)C(=O)OC[C@H]1O[C@@H](n2ccc(NO)nc2=O)[C@H](O)[C@@H]1O [molnupiravir]
number of infectious virus particles in a TCID50 virus assay on adding a mutagen: reduced the number of infectious virus particles
